Source: publication PMC8741796, “In vitro characterization of a small molecule PD-1 inhibitor that targets the PD-l/PD-L1 interaction” (Scientific Reports, 2022)
Entries after “also recorded” stand apart in the source; their conditions may differ. Like-named read-outs stand apart in the source and are kept apart here.

Tests used:
[1] = WST-1 cell cytotoxicity assay in Jurkat cells; assay type: cell-based; details: human, Jurkat cells, WST-1, 48 h
Description: (§1) The WST-1 cytotoxicity assay evaluated cytotoxicity in effector cells (Jurkat cells) (Fig. 2A) and target cells (HEK293 cells) (Fig. 2B). The OD value that resulted from WST-1 reagent dye formation strongly correlated with the number of metabolically live cells. To further characterize cytotoxicity tolerance, CC50 (cytotoxic concentration 50%) values were calculated and are shown in Table 1. […] Doses of compounds in the screening assay were based on the CC50 values of each cell line. Thus, screening concentrations of CH-1, -2, -3, -4 and -6 were 0, 10, 20 and 40 µM, respectively, while the concentrations for CH-5 were 0, 0.1, 1 and 10 µM, respectively. To ensure reliable screening, anti-PD-1 neutralizing antibody (Cat No. 71120) was used as a positive control for inhibiting the interaction of PD-1/PD-L1, while HEK293 cells transfected with control plasmid served as the negative control. These groups were treated with increasing concentrations of anti-PD-1 neutralizing antibody (0, 0.1, 1 and 10 µg/mL) and luminescence intensity was determined after treatments.
(§2) Figure 2 In vitro screening of leading compounds. (A) Jurkat cells and (B) HEK293 cells were treated with six leading compounds to test cytotoxicity. Cells were seeded into 96-well plates at a density of 7 × 10^3/well and incubated overnight. The cells were then treated for 48 h with different concentrations (0, 10, 20, 40, and 80 µM) of the six CH compounds. At 48 h, cell cytotoxicity WST-1 assays were performed. The x-axis indicates treatment concentrations, while the y-axis indicates the percentage of cell viability (each absolute absorbance value [abs. 450 nm–630 nm] was normalized with the controls). (C) The capacity of the CH compounds to inhibit the PD-1/PD-L1 interaction was tested using the bioluminescent cell-based assay. Effector cells (growth-arrested reporter Jurkat cells) were preincubated with anti-PD-1 neutralizing antibody (Cat No. 71120), DMSO, or each of the CH compounds. The activity of luciferase was determined as an indicator of cell activation. The graphs present mean ± SD (standard deviation) values from at least three independent experiments. (D) After overnight incubation, KG-1 cells were treated for 48 h with increasing concentrations of the CH compounds (0, 10, 20, 40, or 80 µM). (E) KG-1 cells were incubated with CH compounds prior to sPD-L1-Atto staining. Flow cytometry determined binding of the Ni–NTA-labeled sPD-L1 (PD-L1-Atto) complex to KG-1 cells expressing PD-1. Cell staining (Atto-subset) was blocked in the presence of the CH compounds. The experimental groups are indicated as (a) KG-1/PBS, (b) KG-1/Atto dye, (c) KG-1/sPD-L1/Atto dye, (d) KG-1/sPD-L1/Atto dye/CH-1, (e) KG-1/sPD-L1/Atto dye/CH-2, (f) KG-1/sPD-L1/Atto dye/CH-3, (g) KG-1/sPD-L1/Atto dye/CH-4, (h) KG-1/sPD-L1/Atto dye/CH-5, (i) KG-1/sPD-L1/Atto dye/CH6. (F) The cell staining data from (E) are normalized and quantified as relative MFI values. (G) At 48 h, PD-1 protein (20 µg/well) expression was determined by Western blotting. The bar graphs present the mean ± SD (standard deviation) values from three independent experiments. *p < 0.05, **p < 0.01, ***p < 0.001. TEXT PRINTED IN THE PICTURE: (E) d.: 33.1 % | (E) e.: 38.1 % | (E) f.: 52.9 % | (E) g.: 4.01 % | (E) h.: 38.35 % | (E) i.: 49.35 % DOUBTS OF THE COPYIST ABOUT THIS PICTURE: Panel E: the picture labels the histograms only with the sub-panel letters a.-i.; it prints no compound name or measure beside the percentages, so the letters are used as labels. / Panel E: sub-panels a. (3.52 %), b. (4.59 %) and c. (53.9 %) were left out because they appear to be controls without a test compound. / Panel E, small print: d. 33.1 % (3 or 8), e. 38.1 % (8 or 3), f. 52.9 % (9 or 8), h. 38.35 % (3, 5 and 8 uncertain) and i. 49.35 % (9, 3 and 5 uncertain) are best readings.
(§3) Figure 3 In vitro inhibition by the CH-4 analog of the PD-1/PD-L1 interaction. […]

[2] = target: T1, PD-1/sPD-L1 interaction (Homo sapiens, UniProt Q15116); experiment: Flow cytometry of sPD-L1-Atto binding to KG-1 cells expressing PD-1; assay type: cell-based; details: Ni-NTA-labeled sPD-L1
T1 construct: endogenous in cells; host or cells: KG-1 cells (ATCC)
Description: (§4) Figure 2 In vitro screening of leading compounds. (A) Jurkat cells and (B) HEK293 cells were treated with six leading compounds to test cytotoxicity. Cells were seeded into 96-well plates at a density of 7 × 10^3/well and incubated overnight. The cells were then treated for 48 h with different concentrations (0, 10, 20, 40, and 80 µM) of the six CH compounds. At 48 h, cell cytotoxicity WST-1 assays were performed. The x-axis indicates treatment concentrations, while the y-axis indicates the percentage of cell viability (each absolute absorbance value [abs. 450 nm–630 nm] was normalized with the controls). (C) The capacity of the CH compounds to inhibit the PD-1/PD-L1 interaction was tested using the bioluminescent cell-based assay. […] The activity of luciferase was determined as an indicator of cell activation. […] Flow cytometry determined binding of the Ni–NTA-labeled sPD-L1 (PD-L1-Atto) complex to KG-1 cells expressing PD-1. […] (F) The cell staining data from (E) are normalized and quantified as relative MFI values. (G) At 48 h, PD-1 protein (20 µg/well) expression was determined by Western blotting. […] 49.35 % (9, 3 and 5 uncertain) are best readings.
Using the WST-1 assay, CH compound cytotoxicities were quantified at different concentrations in KG-1 cells (Fig. 2D). […]

[3] = test system: PD-1 protein; experiment: Western blotting of PD-1 protein expression in KG-1 cells; assay type: cell-based; details: increasing concentrations, 48 h
Description: as §4, with “controls).” for “controls). (C) The capacity of the CH compounds to inhibit the PD-1/PD-L1 interaction was tested using the bioluminescent cell-based assay.”
Figure 3 In vitro inhibition by the CH-4 analog of the PD-1/PD-L1 interaction. […] The x-axis indicates treatment concentrations, while the y-axis indicates the percentage of cell viability (each absolute absorbance value [abs. 450 nm–630 nm] was normalized with the controls). […]

[4] = test system: KG-1 cells; experiment: WST-1 cell cytotoxicity assay in KG-1 cells; assay type: cell-based; details: 10 µM, 48 h
Description: as §2
Using the WST-1 assay, CH compound cytotoxicities were quantified at different concentrations in KG-1 cells (Fig. 2D). […] The data indicated an appropriate concentration for testing inhibition of the PD-1/sPD-L1 interaction by flow cytometry. To clarify the inhibitory qualities of CH compounds in sPD-L1/PD-1 interactions, His-tagged sPD-L1 recombinant protein was labeled with Ni–NTA-conjugated fluorescent dye (Atto) and flow cytometry analysis was performed (Fig. 2E). […] When KG-1 cells were treated with increasing concentrations of CH-4, PD-1 expression was unchanged (Fig. 2G).
The WST-1 assay assessed cell cytotoxicity. Briefly, cells were seeded in 96-well plates at a density of […] (100 μL/well) with 10% FBS in the medium and incubated for 48 h, before undergoing a further 1 h of incubation at 37 °C with 10 μL of WST-1 solution added to each well. Cell viability was quantified by colormetric detection using an ELISA plate reader (Beckman Coulter PARADIGM Detection Platform; Beckman Coulter, IL, USA) at absorbance values of 450 nm and 690 nm to generate an optical density proportional to the relative abundance of live cells in the wells.

[5] = target: T2, PD-1/PD-L1 interaction (Homo sapiens, UniProt Q15116); experiment: Cell-based PD-1/PD-L1 checkpoint assay (bioluminescent NFAT-luciferase, Jurkat effector cells / PD-L1/TCR HEK293 target cells); details: CH compounds 0, 10, 20, 40 µM; CH-4 effect at 10 µM
T2 construct: expressed in transfected cells
Text: Protein docking analysis identified six potential SMIs targeting PD-1: CH-1, CH-2, CH-3, CH-4, CH-5, and CH-6. To evaluate their capacity to inhibit the PD-1/PD-L1 interaction, we used a cell-based PD-1/PD-L1 inhibitor screening approach consisting of a bioluminescent cell-based assay containing two main components; genetically manipulated effector cells (growth-arrested reporter Jurkat cells) and engineered PD-L1/TCR-overexpressed HEK293 cells (target cells). In this assay, PD-1-expressed effector cells were genetically manipulated with the nuclear factor of activated T-cells (NFAT)-associated luciferase reporter gene. We used HEK293 cells for transient overexpression of PD-L1 and an engineered TCR activator as target cells. When the two cells were co-cultivated, the PD-1/PD-L1 interaction prevented TCR activation and suppressed NFAT-induced luciferase activity.
The WST-1 cytotoxicity assay evaluated cytotoxicity in effector cells (Jurkat cells) (Fig. 2A) and target cells (HEK293 cells) (Fig. 2B). The OD value that resulted from WST-1 reagent dye formation strongly correlated with the number of metabolically live cells. […] These groups were treated with increasing concentrations of anti-PD-1 neutralizing antibody (0, 0.1, 1 and 10 µg/mL) and luminescence intensity was determined after treatments. […]

[6] = WST-1 cell cytotoxicity assay in HEK293 cells; assay type: cell-based; details: human, HEK293 cells, WST-1, 48 h
Description: as §1, §2, §3

[7] = test system: Jurkat cells; experiment: WST-1 cell cytotoxicity assay in Jurkat cells; assay type: cell-based; details: WST-1, 48 h
Description: as §1, §2, §3

[8] = test system: HEK293 cells; experiment: WST-1 cell cytotoxicity assay in HEK293 cells; assay type: cell-based; details: WST-1, 48 h
Description: as §1, §2, §3

[9] = mean ± SD, Table 1, read-out: CC50 Jurkat cells
[10] = read-out: CC50 Jurkat cells (tolerance)
[11] = mean ± SD, Table 1, read-out: CC50 293 cells
[12] = read-out: CC50 HEK293 cells (tolerance)

T1 sequence (Q15116 25-288): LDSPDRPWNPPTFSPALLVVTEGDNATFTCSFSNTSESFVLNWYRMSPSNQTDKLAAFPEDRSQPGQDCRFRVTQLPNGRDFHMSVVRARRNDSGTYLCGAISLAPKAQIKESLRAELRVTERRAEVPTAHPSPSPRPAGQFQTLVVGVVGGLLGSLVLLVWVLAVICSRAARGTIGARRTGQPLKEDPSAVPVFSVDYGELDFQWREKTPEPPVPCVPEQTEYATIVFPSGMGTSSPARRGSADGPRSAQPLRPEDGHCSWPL
T2 sequence (Q15116 25-288): as above

Compound	cytotoxicity to KG-1 cells [4]	CC50 [7, 9] [µM]	CC50 [7, 10] [µM]	CC50 [8, 11] [µM]	CC50 [8, 12] [µM]	further results
COc1ccc(N=Nc2ccc3oc(=O)c(C(=O)Nc4ccc(OC)cc4)cc3c2)cc1 [CH-4]	low cytotoxicity	–	–	–	–	CC50 at 48 h [1, 9]: 30.3 ± 1.3 µM; CC50 at 48 h [1, 10]: > 20 µM; inhibition of sPD-L1 binding to KG-1 cells (shift in staining/fluorescence intensity) [2]: slight, yet significant, shift in staining intensity; also recorded: significantly decreased the shift in fluorescence intensity; PD-1 protein expression [3]: unchanged; inhibitory capacity for the PD-1/PD-L1 interaction (luciferase activity) [5]: potential inhibitory capacity; CC50 at 48 h [6, 11]: 18.9 ± 1.53 µM; CC50 at 48 h [6, 12]: > 20 µM
COc1cc(-c2ccc(NC(=O)CSC(N)=O)c(OC)c2)ccc1NC(=O)CSC(N)=O [CH-3]	low cytotoxicity	212 ± 46.5	> 20	78.1 ± 4.95	> 20	–
O=C(Nc1ccccc1)c1cc2ccccc2oc1=O [CH-4.9]	–	–	–	–	–	cytotoxicity in Jurkat cells ([7]; up to 100 µM, Fig. 3A): neither analog showed any evidence of cytotoxicity; inhibitory capacity for the PD-1/PD-L1 interaction (luciferase activity) [5]: failed to inhibit; concentration associated with increasing cytotoxicity in HEK293 cells ([8]; Fig. 3A): exceeding 20 µM
C/C(=N\NC(=O)CCSCCC(=O)N/N=C(\C)c1ccccc1)c1ccccc1 [CH-6]	low cytotoxicity	103.4 ± 0.94	> 20	113 ± 26.1	> 20	–
Cc1ccccc1NC(=O)C(=O)CC(=O)c1sc(Nc2ccccc2[N+](=O)[O-])nc1C [CH-1]	low cytotoxicity	133 ± 5.1	> 20	46.9 ± 10.2	> 20	–
O=c1c(/C=C/c2c(O)ccc3ccccc23)nnc2sc(-c3cccc([N+](=O)[O-])c3)nn12 [CH-5]	sensitized	10.6 ± 2.67	–	8.52 ± 1.74	–	–
COc1c(C(=O)Nc2ccc(C3=NCCN3)cc2)cccc1C(=O)Nc1ccc(C2=NCCN2)cc1 [CH-2]	low cytotoxicity	94.9 ± 1.97	> 20	151 ± 32.5	> 20	–
